{"source": "paper PMC2935290", "about": "(Journal of immunology (Baltimore, Md. : 1950), 2010)", "key": {"HLA-DPB1*0402": {"target": "T1, HLA-DPB1*0402 (Homo sapiens, UniProt P04440+P20036, A65V/A84D/A85E/L207M)", "T1 sequence (P04440 30-258 A65V/A84D/A85E)": "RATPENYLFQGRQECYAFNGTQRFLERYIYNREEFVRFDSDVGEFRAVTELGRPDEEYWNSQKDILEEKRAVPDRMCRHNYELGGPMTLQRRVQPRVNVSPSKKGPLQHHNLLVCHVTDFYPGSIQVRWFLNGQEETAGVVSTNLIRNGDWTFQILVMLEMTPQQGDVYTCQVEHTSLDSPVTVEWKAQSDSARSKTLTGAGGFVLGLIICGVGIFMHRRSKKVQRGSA", "T1 sequence (P20036 29-260)": "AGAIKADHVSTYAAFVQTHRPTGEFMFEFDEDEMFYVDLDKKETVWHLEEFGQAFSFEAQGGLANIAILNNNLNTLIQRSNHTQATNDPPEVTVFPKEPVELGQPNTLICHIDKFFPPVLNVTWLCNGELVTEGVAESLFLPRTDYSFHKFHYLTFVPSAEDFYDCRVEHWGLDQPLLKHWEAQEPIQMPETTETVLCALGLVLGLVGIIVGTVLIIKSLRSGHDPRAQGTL", "experiment": "biochemical", "type": "binding"}, "HLA-DPB1*0201": {"target": "T2, HLA-DPB1*0201 (Homo sapiens, UniProt P04440+P20036, A65V/A84D/A85E/K98E)", "T2 sequence (P04440 30-258 A65V/A84D/A85E/K98E)": "T1 sequence (P04440 30-258 A65V/A84D/A85E) with K69E", "T2 sequence (P20036 29-260)": "T1 sequence (P20036 29-260)", "experiment": "biochemical", "type": "binding"}}, "note": "Changes are numbered by the printed parent chain. Where no end group is shown, it is not given here.", "data": [{"compound": "CC[C@H](C)[C@H](NC(=O)[C@H](CC(=O)O)NC(=O)[C@H](CC(=O)O)NC(=O)[C@H](Cc1ccccc1)NC(=O)[C@H](C)NC(=O)[C@H](CCCCN)NC(=O)[C@H](CCC(N)=O)NC(=O)[C@@H](NC(=O)[C@H](CCCCN)NC(=O)[C@@H](N)CCC(=O)O)[C@@H](C)CC)C(=O)N[C@@H](C)C(=O)N[C@@H](CCCCN)C(=O)N[C@@H](Cc1ccc(O)cc1)C(=O)N[C@@H](Cc1ccccc1)C(=O)N[C@@H](CO)C(=O)N[C@@H](CCCCN)C(=O)O", "values": [{"measurement": "IC50", "setting": "HLA-DPB1*0402", "result": 0.506, "unit": "µM"}, {"measurement": "IC50", "setting": "HLA-DPB1*0201", "result": 0.075, "unit": "µM"}]}, {"compound": "EEVDMTPADALDDFD", "values": [{"measurement": "IC50", "setting": "HLA-DPB1*0402", "result": 26, "unit": "µM"}, {"measurement": "IC50", "setting": "HLA-DPB1*0201", "result": 5.8, "unit": "µM"}]}, {"compound": "CC[C@H](C)[C@H](NC(=O)[C@@H](N)CCCCN)C(=O)N[C@@H](Cc1ccccc1)C(=O)NCC(=O)N[C@@H](CO)C(=O)N[C@@H](CC(C)C)C(=O)N[C@@H](C)C(=O)N[C@@H](Cc1ccccc1)C(=O)N[C@@H](CC(C)C)C(=O)N1CCC[C@H]1C(=O)N[C@@H](CCC(=O)O)C(=O)N[C@@H](CO)C(=O)N[C@@H](Cc1ccccc1)C(=O)N[C@@H](CC(=O)O)C(=O)NCC(=O)N[C@@H](CC(=O)O)C(=O)N1CCC[C@H]1C(=O)N[C@@H](C)C(=O)O", "values": [{"measurement": "IC50", "setting": "HLA-DPB1*0402", "result": 0.143, "unit": "µM"}, {"measurement": "IC50", "setting": "HLA-DPB1*0201", "result": 0.009, "unit": "µM"}]}, {"compound": "NNKYAASSYLSLTPE", "values": [{"measurement": "IC50", "setting": "HLA-DPB1*0402", "result": 0.042, "unit": "µM"}, {"measurement": "IC50", "setting": "HLA-DPB1*0201", "result": 0.0024, "unit": "µM"}]}]}
